Assay results published in patent US6277847A, “Herbicidal isoindolinonyl-and 3,4-dihydroisoquinolonyl-substituted heterocycles” (FMC Corporation, priority 2000, dated 2001).

How the values were obtained:
Assay type in all cases: in vivo
[1] = tested on: soybean (Glycine max -- var. Winchester); assay: pre-emergence herbicidal activity, soybean; settings: 1 kg/Ha, about fourteen days, read-out: pre-emergence herbicidal activity (% control) SOY
Protocol: (§1) This example sets forth the methods of herbicidal testing conducted on the specific compounds set forth below. Specifically, the compounds referenced below were tested for pre- and post-emergence herbicidal activity using a variety of crops and weeds. The test plants include, but are not limited to, soybean (Glycine max -- var. Winchester), field corn (Zea mays var. Pioneer 3732), wheat (Triticum aestivum var. Lew), morningglory (Ipomea lacunosa or Ipomea hederacea), velvetleaf (Abutilon theophrasti), green foxtail (Setaria viridis), Johnsongrass (Sorghum halepense), blackgrass (Aloepecurus myosuroides), common chickweed (Stellaria media), and common cocklebur (Xanthium strumarium L.).
(§2) In the post-emergence test, seeds of the plant species named above were planted in flats containing the appropriate soil mixture where they were maintained to allow the seeds to germinate. When the plants in these flats reached the proper stage of growth, flats for the pre-emergence tests were planted in a like manner. The flats containing the post-emergence and pre-emergence test plant species were then sprayed with an appropriately concentrated water/acetone solution of test compound. Once treated the flats were maintained, along with untreated controls, for about fourteen days. All treated plants were then examined for phytotoxicity, which was expressed as percent control where 0 is no effect and 100 is complete control. Effective rates of application for the compounds of the present invention range from 0.001 to 3 kg/ha, more likely from […] to 1 Kg/ha.
(§3) Herbicidal activity data at selected application rates are in Tables 4 and 5. The test compounds are identified by numbers correspond to those in Table 1.
(§4) Rate of application of test compound is 1 kg/Ha
(§5) SOY is soybean, WHT is wheat, CRN is corn, ABUTH is velvetleaf, IPOSS is
(§6) morningglory, STEME is chickweed, XANPE is cocklebur, ALOMY is blackgrass, […]

[2] = tested on: field corn (Zea mays var. Pioneer 3732); assay: pre-emergence herbicidal activity, corn; settings: 1 kg/Ha, about fourteen days, read-out: pre-emergence herbicidal activity (% control) CRN
Protocol: as §1, §2, §3, §4, §5, §6

[3] = tested on: field corn (Zea mays var. Pioneer 3732); assay: post-emergence herbicidal activity, corn; settings: 1 Kg/Ha, about fourteen days, read-out: post-emergence herbicidal activity (% control) CRN
Protocol: as §1, §2, §3, §5
(§7) morningglory, STEME is chickweed, XANPE is cocklebur, ALOMY is blackgrass,
(§8) Rate of application of test compound is 1 Kg/Ha. The definitions as shown under Table 4 apply to Table 5.

[4] = tested on: wheat (Triticum aestivum var. Lew); assay: post-emergence herbicidal activity, wheat; settings: 1 Kg/Ha, about fourteen days, read-out: post-emergence herbicidal activity (% control) WHT
Protocol: as §1, §2, §3, §5, §7, §8

[5] = tested on: common cocklebur (Xanthium strumarium L.); assay: post-emergence herbicidal activity, cocklebur; settings: 1 Kg/Ha, about fourteen days, read-out: post-emergence herbicidal activity (% control) XANPE
Protocol: as §1, §2, §3, §5, §7, §8

[6] = tested on: morningglory (Ipomea lacunosa or Ipomea hederacea); assay: pre-emergence herbicidal activity, morningglory; settings: Ipomoea, 1 kg/Ha, about fourteen days, read-out: pre-emergence herbicidal activity (% control) IPOSS
Protocol: as §1, §2, §3, §4, §5, §6

[7] = tested on: Johnsongrass (Sorghum halepense); assay: post-emergence herbicidal activity, johnsongrass; settings: 1 Kg/Ha, about fourteen days, read-out: post-emergence herbicidal activity (% control) SORHA
Protocol: as §1, §2, §3, §5, §7, §8

[8] = tested on: morningglory (Ipomea lacunosa or Ipomea hederacea); assay: post-emergence herbicidal activity, morningglory; settings: Ipomoea, 1 Kg/Ha, about fourteen days, read-out: post-emergence herbicidal activity (% control) IPOSS
Protocol: as §1, §2, §3, §5, §7, §8

[9] = tested on: wheat (Triticum aestivum var. Lew); assay: pre-emergence herbicidal activity, wheat; settings: 1 kg/Ha, about fourteen days, read-out: pre-emergence herbicidal activity (% control) WHT
Protocol: as §1, §2, §3, §4, §5, §6

[10] = tested on: green foxtail (Setaria viridis); assay: post-emergence herbicidal activity, green foxtail; settings: 1 Kg/Ha, about fourteen days, read-out: post-emergence herbicidal activity (% control) SETVI
Protocol: as §1, §2, §3, §5, §7, §8

[11] = tested on: green foxtail (Setaria viridis); assay: pre-emergence herbicidal activity, green foxtail; settings: 1 kg/Ha, about fourteen days, read-out: pre-emergence herbicidal activity (% control) SETVI
Protocol: as §1, §2, §3, §4, §5, §6

[12] = tested on: velvetleaf (Abutilon theophrasti); assay: pre-emergence herbicidal activity, velvetleaf; settings: 1 kg/Ha, about fourteen days, read-out: pre-emergence herbicidal activity (% control) ABUTH
Protocol: as §1, §2, §3, §4, §5, §6

[13] = tested on: soybean (Glycine max -- var. Winchester); assay: post-emergence herbicidal activity, soybean; settings: 1 Kg/Ha, about fourteen days, read-out: post-emergence herbicidal activity (% control) SOY
Protocol: as §1, §2, §3, §5, §7, §8

[14] = tested on: blackgrass (Aloepecurus myosuroides); assay: pre-emergence herbicidal activity, blackgrass; settings: Alopecurus myosuroides, 1 kg/Ha, about fourteen days, read-out: pre-emergence herbicidal activity (% control) ALOMY
Protocol: as §1, §2, §3, §4, §5, §6

[15] = tested on: common chickweed (Stellaria media); assay: pre-emergence herbicidal activity, chickweed; settings: 1 kg/Ha, about fourteen days, read-out: pre-emergence herbicidal activity (% control) STEME
Protocol: as §1, §2, §3, §4, §5, §6

[16] = tested on: velvetleaf (Abutilon theophrasti); assay: post-emergence herbicidal activity, velvetleaf; settings: 1 Kg/Ha, about fourteen days, read-out: post-emergence herbicidal activity (% control) ABUTH
Protocol: as §1, §2, §3, §5, §7, §8

[17] = tested on: Johnsongrass (Sorghum halepense); assay: pre-emergence herbicidal activity, johnsongrass; settings: 1 kg/Ha, about fourteen days, read-out: pre-emergence herbicidal activity (% control) SORHA
Protocol: as §1, §2, §3, §4, §5, §6

[18] = tested on: common cocklebur (Xanthium strumarium L.); assay: pre-emergence herbicidal activity, cocklebur; settings: 1 kg/Ha, about fourteen days, read-out: pre-emergence herbicidal activity (% control) XANPE
Protocol: as §1, §2, §3, §4, §5, §6

| Compound | activity at 1000 g/ha [1] [%] | activity at 1000 g/ha [2] [%] | activity at 1000 g/ha [3] [%] | activity at 1000 g/ha [4] [%] | activity at 1000 g/ha [5] [%] | activity at 1000 g/ha [6] [%] | activity at 1000 g/ha [7] [%] | activity at 1000 g/ha [8] [%] | activity at 1000 g/ha [9] [%] | activity at 1000 g/ha [10] [%] | activity at 1000 g/ha [11] [%] | activity at 1000 g/ha [12] [%] | activity at 1000 g/ha [13] [%] | activity at 1000 g/ha [14] [%] | activity at 1000 g/ha [15] [%] | activity at 1000 g/ha [16] [%] | activity at 1000 g/ha [17] [%] | activity at 1000 g/ha [18] [%] |
| --- | --- | --- | --- | --- | --- | --- | --- | --- | --- | --- | --- | --- | --- | --- | --- | --- | --- | --- |
| CCOC(=O)CN1Cc2c(-n3c(=O)cc(C(F)(F)F)n(C)c3=O)ccc(Cl)c2C1=O [Compound 7] | 70 | 70 | 40 | 20 | 60 | 80 | 40 | 40 | 30 | 60 | 70 | 100 | 60 | 40 | 60 | 80 | 55 | 50 |
| C#CCN1Cc2c(-n3c(=O)cc(C(F)(F)F)n(C)c3=O)ccc(Cl)c2C1=O [Compound 8] | 100 | 100 | 100 | 100 | 100 | 100 | 100 | 100 | 100 | 100 | 100 | 100 | 100 | 100 | 100 | 100 | 100 | 100 |
| CN1Cc2c(-n3c(=O)cc(C(F)(F)F)n(C)c3=O)ccc(Cl)c2C1=O [Compound 9] | 100 | 100 | 50 | 50 | 70 | 100 | 50 | 90 | 100 | 70 | 100 | 100 | 100 | 100 | 100 | 100 | 100 | 100 |
| Cn1c(C(F)(F)F)cc(=O)n(-c2ccc(Cl)c3c2CN(Cc2ccccc2)C3=O)c1=O [Compound 10] | 80 | 90 | 60 | 40 | 50 | 80 | 40 | 40 | 70 | 60 | 100 | 100 | 65 | 80 | 100 | 100 | 100 | 80 |
| CCCCN1Cc2c(-n3c(=O)cc(C(F)(F)F)n(C)c3=O)ccc(Cl)c2C1=O [Compound 11] | 100 | 100 | 80 | 100 | 100 | 100 | 90 | 95 | 100 | 100 | 100 | 100 | 95 | 100 | 100 | 100 | 100 | 100 |
| Cn1c(C(F)(F)F)cc(=O)n(-c2ccc(Cl)c3c2CNC3=O)c1=O [Compound 12] | 100 | 100 | 70 | 70 | 95 | 100 | 60 | 75 | 100 | 100 | 100 | 100 | 95 | 100 | 100 | 100 | 100 | 100 |
| CCCN1Cc2c(-n3c(=O)cc(C(F)(F)F)n(C)c3=O)ccc(Cl)c2C1=O [Compound 13] | 100 | 100 | 100 | 100 | 95 | 100 | 100 | 100 | 100 | 100 | 100 | 100 | 100 | 100 | 100 | 100 | 100 | 100 |
| Cn1c(C(F)(F)F)cc(=O)n(-c2ccc(Cl)c3c2CN(C(C)(C)C)C3=O)c1=O [Compound 14, 3-[7-chloro-2-(1,1-dimethylethyl)isoindolin-1-on-4-yl]-1-methyl-6-trifluoromethyl-2,4(1H,3H)-pyrimidinedione] | 100 | 100 | 80 | 100 | 100 | 100 | 100 | 90 | 100 | 100 | 100 | 100 | 100 | 100 | 100 | 100 | 100 | 100 |
| Cn1c(C(F)(F)F)cc(=O)n(-c2c(Cl)cc(Cl)c3c2CNC3=O)c1=O [Compound 15] | 100 | 95 | 60 | 50 | 60 | 100 | 40 | 100 | 95 | 60 | 100 | 100 | 70 | 100 | 60 | 100 | 100 | 100 |
